Series [1] is described as follows: Release of docetaxel or its derivative from polymer conjugates in phosphate buffers (HPLC). Type of series: physicochemical. As to conditions: pH 7.4 compared with pH 5.0, 37°C, conjugate 5 mg/mL.
Method: At predetermined time intervals 200 µL of incubation solution was collected and after the extraction of released drugs and derivatives thereof into chloroform their amounts were determined using an HPLC system (Shimadzu HPLC system equipped with a column with a reverse phase Chromolith Performance RP-18e (100 x 4.6 mm) and UV-VIS detector Shimadzu SPD-10AVvp (230 nm), eluent water-acetonitrile with gradient from 50 to 100 vol% of acetonitrile, flow rate of 0.5 mL x min^-1).
Series [2] deals with CT26 - colon carcinoma cell line. In words: Cytostatic activity, 3H-thymidine incorporation. Type of series: cell-based, murine. The method, then: (§1) These were murine tumour cell lines (CT26 - colon carcinoma cell line, 4T1 - mammary carcinoma cell line, both originating from the BALB/c inbred strain of mice, followed by EL4.IL-2-line of T-cell lymphoma originating from the C57BL/6 inbred strain of mice) and FaDu - a human line of squamous cell carcinoma of the head and neck. […] The cell proliferation was then determined using the standard method of incorporating ^3H-thymidine which was added for the last 6 hours of culture. Subsequently, the cultures were processed using the Tomtec Mach III harvester and, after drying, the radioactivity of samples obtained was measured by the beta-scintillation counter Microbeta Trilux (Wallac) using a solid scintillant (MeltiLex; Perkin Elmer). […] The activity of conjugates was determined by 3H-thymidine incorporation after 72 hours of incubation of cells with various concentrations of drugs. The IC50 values are given in ng of doxorubicin/mL and were calculated as a mean of several independent determinations.
In general terms: Incorporation of labelled thymidine or its analogues reports DNA synthesis.

Series [3] has as its system murine T-cell lymphoma EL4. The class given is in vivo. How it is done:
(§2) The in vivo antitumour effect of micellar diblock polymer conjugate of Example 28 carrying doxorubicin (DOX-DB) was studied on a model of murine T-cell lymphoma EL4 in the C57BL/6 inbred strains of mice. The conjugate was administered to mice intravenously (i.v.) in a single dose equivalent to 7.5 mg of doxorubicin/kg. The drug was injected 8 days after subcutaneous administration of 1 x 10^5 EL4 tumour cells, at a time when tumours are developed and the tumour bed size is about 6-8 mm in diameter. […] Further, the free doxorubicin (DOX) was used for treatment, injected at a total dose of 10 mg/kg, which, due to the different pharmacokinetics of a low molecular weight drug and the associated danger of high systemic toxicity, was injected in two partial intravenous doses on the 8th and 12th day after transplantation of tumour cells (each dose of 5 mg of doxorubicin).
(§3) Days mean the death of animals after administration of tumour cells (1 x 10^5 cells EL4 s.c. on day 0), LTS ("long term survivor") means long-term surviving mice without evidence of tumour (at least until day 70 after administration of tumour cells). The last line contains information about the median survival in groups.

The next series concerns NB3/DOX. In words: IC50 of drugs with/without block copolymer, AlamarBlue method. The class given is cell-based. As to conditions: cells pre-incubated 1 hour with/without block copolymer at 250 µg/mL. The method, then:
(§4) In in vitro experiments the cells were first incubated for 1 hour with/without a diblock or triblock copolymer at a concentration 250 µg/mL and thereto were added the above mentioned drugs in a concentration series. After 72 hours of incubation the metabolic activity of cells was determined using the AlamarBlue method and from it the IC50 of individual drugs. An experiment was performed with non-degradable diblock polymers PHPMA-PPO (Example 20) and triblock polymers (PHPMA)2-PPO (Example 21) as a control.

Another series relates to NB4/DOX. The series is described as above. As to conditions: cells pre-incubated 1 hour with/without block copolymer at 250 µg/mL. The class given is cell-based. The method, then: as §4
Series [4] concerns 4T1 - mammary carcinoma cell line. In words: Cytostatic activity, 3H-thymidine incorporation. The class given is cell-based, murine. Particulars: Mus musculus; 4T1, 72 hours. The method, then: as §1
The test system of series [5] is EL4.IL-2-line of T-cell lymphoma. In words: Cytostatic activity, 3H-thymidine incorporation. The class given is cell-based, murine. Particulars: Mus musculus, EL4.IL-2, 72 hours. How it is done:
as §1

The test system of series [6] is FaDu - a human line of squamous cell carcinoma of the head and neck. The experiment in a line: Cytostatic activity, 3H-thymidine incorporation. The class given is cell-based. As to conditions: 72 hours. The method, then:
as §1

The test system of series [7] is murine T-cell lymphoma EL4. In words: In vivo antitumour effect in the treatment of EL4 lymphoma. Set-up: species or system C57BL/6 mice. The method, then: as §2, §3
Where [8] appears, read: read-out: IC50 after 72 hours of incubation.

Converted amounts (≈) assume the structure as drawn. “And” between values parts separate entries of the source, which are not always exact repeats. Equal values may be shown once. Read-outs that look alike come from different tables or passages of the source.

As to “[raft-poly(HPMA-co-MA-AH-NHN=DTX-LEV)]-GFLG-PPO-NH2 [Example 28B]”, the “release of drug DTX (or its derivative)” value in series [1] is given as “released significantly slower”.

For the compound “[raft-poly(HPMA-co-MA-AH-NHN=DOX)]-GFLG-PPO-NH2 [DB-DOX]”, the “decrease of the cytostatic effect of doxorubicin by binding the drug to a diblock carrier” value in series [2] is 2.6 times. For the same compound, the “first mouse with complete tumour regression, time after drug administration” value in series [3] (1 x 7.5 mg DOX eq./kg) is listed as “eighth day”. In addition, in [3] (1 x 7.5 mg DOX eq./kg i.v.), the median survival was found to be 47.5 days; the “tumour growth in comparison to untreated controls” value is “tumour growth stagnation within three days and a significant reduction in growth between the third and sixth day after administration of the drug”. The “Survival: day of death of individual animals after administration of tumour cells” value in series [3] (1 x 7.5 mg DOX eq./kg i.v. on day 8) is 37 Days and 39 Days and 42 Days (2×) and 60 Days and LTS (LTS ("long term survivor") means long-term surviving mice without evidence of tumour (at least until day 70 after administration of tumour cells)) (3×). Further, in series [3] (1 x 7.5 mg DOX eq./kg i.v., 8 mice), the “complete cure (share of subjects)” value is given as 37.5%. Moreover, in series [3] (13 days after drug administration, 1 x 7.5 mg DOX eq./kg), the “mice without apparent tumour at the place of administration” value was 4 mice (out of 8). For the same compound, the “resistance against tumour after retransplantation of cured mice (LTS)” value in [3] (retransplanted 119 days after the first tumour, no treatment) was “of these three mice two were resistant”. Also, the “IC50 after 72 hours of incubation” value with NB3/DOX was determined as 0.919 ± 0.020 µg/mL. In addition, the “IC50 after 72 hours of incubation” value in the series on NB4/DOX was 7.07 ± 0.11 µg/mL.

In general, IC50 refers to the concentration that gives 50% inhibition. `COc1cccc2c1C(=O)c1c(O)c3c(c(O)c1C2=O)C[C@@](O)(C(=O)CO)C[C@@H]3O[C@H]1C[C@H](N)[C@H](O)[C@H](C)O1` [DOX, doxorubicin]: the IC50 in [4] came out at 0.0143 µg/mL (≈ 0.0263 µM); in series [5], 0.0122 µg/mL (≈ 0.0224 µM); in [2] (Mus musculus, CT26, 72 hours), 0.0425 µg/mL (≈ 0.0782 µM); in series [6] it was 0.0048 µg/mL (≈ 0.00883 µM); with NB3/DOX (setting [8]) it was 0.215 ± 0.004 µg/mL (≈ 0.396 µM); in the series on NB4/DOX (setting [8]), 2.61 ± 0.17 µg/mL (≈ 4.8 µM). Further, the complete cure entry in series [7] (2 x 5 mg DOX/kg i.v.) is on record as “none”. In series [7] (2 x 5 mg DOX/kg i.v.), this compound displayed a median survival of 40.5 days. For the same compound, in series [7] (2 x 5 mg DOX/kg i.v.), the “tumour growth in comparison to untreated controls” value was “the average tumour growth was slower than in the group of untreated mice, but showed a steady progression”. Also, in series [7] (2 x 5 mg DOX/kg i.v. on days 8 and 12), the “Survival: day of death of individual animals after administration of tumour cells” value is 35 Days and 38 Days and 39 Days and 42 Days and 53 Days (2×). For the same compound, in the series with NB3/DOX, the “IC50 after 72 hours of incubation” value came to 0.168 ± 0.005 µg/mL.

For the origin of these results see EP3442594B1, “BLOCK COPOLYMER FOR […] RESISTANCE OF TUMOURS TO CHEMOTHERAPY, ITS POLYMER-DRUG CONJUGATE, PHARMACEUTICAL COMPOSITION CONTAINING THEM, METHOD OF PREPARATION AND USE THEREOF” (Ustav makromolekularni chemie AV CR, v.v.i., priority 2016, dated 2017).
